Assay results published in US11613552B2, “Pharmaceutical agents, compositions, and methods relating thereto” (Alltech, Inc., priority 2017, dated 2023).

Assays:
[1] = test system: HepG2 cells; experiment: Glucose production assay in HepG2 cells; type: cell-based, human; details: tested doses, serum-free glucose production media, 48 hr (FIG. 1)
Protocol: Equal numbers of Human HepG2 or rat H4IIE cells (1-1.5×10^5 cells/well) were seeded on 96 well plates in 10% FBS-containing media for 24 hr. Cells were then washed twice with PBS, and treated with various concentrations of compounds, metformin or insulin in 100 μl of glucose production media (glucose-free, phenol red-free DMEM media supplemented with 20 mM sodium lactate, 2 mM sodium pyruvate and 5 mM HEPES) at 37° C. for 24 hr (H4IIE cells only) or 48 hr (HepG2 cell only). Cells were also incubated with 0.24% DMSO (the maximal volume of DMSO solvent used in the experiments).
After the above treatments, 50 μl of culture media were collected, and subjected to glucose analysis using Molecular Probes Amplex Red glucose assay kit (Cat #A22189) according to the manufacturer's protocol. Cell numbers or viability in the culture plate after the above compound treatments were determined using Promega's CellTiter96® AQueous One Solution Cell Proliferation Assay kits, according to the manufacturer's protocol and instructions. In brief, after removing 50 μl of culture media for glucose assay, cells were incubated with AQueous One solution (25 μl stock solution and 50 μl prewarmed PBS/per well) at 37° C. for 1 hour, and the absorbance of OD490 nm in each sample was determined by the Bio-Tek microplate reader. Cell viability in culture wells were determined by the subtraction of OD490 nm in cultured cells with the OD490 nm in plain culture media (without seeding of cells). Glucose production in the culture cells were obtained by normalizing the glucose concentration in culture media by cell viability in each well. At least 3 samples per each treatment were examined for the above analysis. Data are presented as Mean±SEM of those samples. Experiments were repeated at least twice.
The half maximal inhibitory concentration (IC50 values) of Compound #43 or metformin for the inhibition of glucose production were determined using the ED50 Plus v1.0 online software.

[2] = test system: C2C12 cells; details: each individually, mouse skeletal muscle myoblast C2C12 cells; cited from earlier work
[3] = test system: G6pc; experiment: QRT-PCR of basal G6pc expression in AML-12 cells; type: cell-based, mouse; details: 300 ppb selenium (3.8 μM), serum-free, 24 hr (FIG. 10A)
Protocol: For RNA analysis of basal G6pc expression (without the presence of diabetic stimuli: 8-CPT/Dex), amplified AML-12 and HepG2 cells were cultured on 24-well plates (0.5-2×10^5 cells/well) overnight in 10% FBS ITS- and Dex-free DMEM/F12 media and 10% FBS EMEM media, respectively. These cells were rinsed twice with PBS to remove residual sera. Then, the PBS-washed HepG2 cells were treated without or with insulin or Compound #43 in serum-free EMEM media for 40 hr. In some experiments, the PBS-washed AML-12 cells were incubated without or with Compound #43 or other selenium compounds in serum-free DMEM/F12 media for 24 hours. In other experiments, amplified AML-12 cells were pretreated without or with Compound #43 (150 or 300 ppb) in 10% FBS but ITS/Dex-free DMEM/F12 media for 24 hr. After 24 hr treatment, AML-12 cells were washed twice with PBS (to remove any residual serum in the culture) and then treated with insulin, Compound #43 or both, in the serum-free DMEM/Dex media for 6 hr.
(§1) Total RNA from saline- or selenium compound-treated Lepr^db/db mice was isolated using a Qiagen RNAeasy RNA isolation kit according to the Manufacturer's protocol. Total RNA from cultured cells was isolated using Trizol (Invitrogen) according to the manufacturer's protocol, and then incubated with DNase I to remove any potential contaminating genomic DNA. RNA samples were subjected to real-time PCR (QRT-PCR) analysis using Applied-Bioscience's RT kit and predesigned Taqman probes (Invitrogen), as described previously (Lan et al EMBO J 2003). Data were normalized by Actin B (Actb) mRNA levels in each sample, and are presented as mean±SEM of 3-5 samples.

[4] = test system: Tau; details: AD brains; cited from earlier work
[5] = test system: Lepr^db/db mice; experiment: Glucose tolerance test in Lepr^db/db mice; type: in vivo, mouse
Protocol: Male Lepr^db/db mice at 38 days of age were intraperitoneally (ip) injected daily with physiological saline ([…]) containing 0.2% DMSO, Compound #C, Compound #50, Compound #68, and/or Compound #43 (25 μg selenium or sulfur equivalents of each compound per kilogram body weight, diluted in sterile physiological saline) for periods ranging from 43-90 days. Body weights of the above treated mice were recorded daily using a balance and any visible abnormal animal gross morphology and walking behavior were monitored daily. After the treatments, animals were fasted overnight and then subjected to blood glucose or HbA1c assays, glucose tolerance tests or tissue collections.
For comparative studies of any potential anti-diabetic effects of Compounds #43, #69 and #70, male Lepr^db/db mice at 41 days of age were intraperitoneally (ip) injected daily with physiological saline ([…]) containing 0.2% DMSO, Compound #43, Compound #69, or Compound #70 (25 μg selenium of each compound per kilogram body weight, diluted in sterile physiological saline). After the treatments for 43 days, animals were fasted overnight and then subjected to blood glucose and glucose tolerance tests. After daily treatments of these compounds for 90 days, sera from these animals were collected and then subjected to blood HbA1c assays.
Glucose tolerance tests were performed as described previously (Li et al, Int J Biol Sci 2008; 4:29-36). Briefly, overnight-fasted Lepr^db/db mice after saline or compound treatments were injected intraperitoneally with 2 grams/kg body weight of 20% D-glucose. Blood glucose levels at time 0 (immediately before the injection of glucose), 0.25, 0.5, 1 and 2 hours after injection of glucose were determined using a glucometer with a maximum glucose measurement capacity of 600 mg/dL. Because of this, blood glucose levels over 600 mg/dL were counted as 600 mg/dL in the data analysis.

[6] = test system: Glut4; experiment: QRT-PCR of Glut4 mRNA in livers of Lepr^db/db mice; type: in vivo, mouse; details: 25 μg selenium/kg ip daily, 52 days (FIG. 15)
Protocol: Male Lepr^db/db mice (C57BL/6J strain, purchased from The Jackson Laboratory) at postnatal day 38 were intraperitoneally injected daily with physiological saline ([…]) containing 0.2% DMSO, Compound #43, or Compound #50 (25 μg selenium of each compound per kilogram body weight, diluted in sterile physiological saline) for 52 days. After treatment, livers were collected and subjected to RNA analysis.
Total liver RNA from saline- or Compound #43-treated Lepr^db/db mice was isolated using a Qiagen RNAeasy RNA isolation kit according to the Manufacturer's protocol. Total RNA from cultured cells was isolated using Trizol (Invitrogen) according to the manufacturer's protocol, and then incubated with DNase I to remove any potential contaminating genomic DNA. RNA samples were subjected to real-time PCR analysis using Applied-Bioscience's RT kit and predesigned Taqman probes (Invitrogen), as described previously (Lan et al EMBO J 2003). Data were normalized by Actin B (Actb) mRNA levels in each sample and are presented as mean±SEM of 3-5 samples.

[7] = test system: G6pc; experiment: QRT-PCR of G6pc mRNA in livers of Lepr^db/db mice; type: in vivo, mouse; details: 25 μg selenium/kg ip daily, 52 days (FIG. 9)
Protocol: Male Lepr^db/db mice (C57BL/6J strain, purchased from The Jackson Laboratory) at 38-days of age were intraperitoneally injected daily with physiological saline ([…]) containing 0.2% DMSO, Compound #50, or Compound #43 (25 μg selenium equivalent of each compound per kilogram body weight, diluted in the sterile physiological saline) for 52 days. After the treatment, livers were collected and subjected RNA analysis.
as §1

[8] = test system: brain cells; details: cited from earlier work

Nc1ncnc2c1ncn2[C@@H]1O[C@H](C[Se]CC[C@H](N)C(=O)O)C(O)C1O (stereo partly shown) [Compound D, 5′-Selenoadenosyl homocysteine, reference compound]
effect on glucose production in HepG2 cells [1]: inhibited glucose production
mitochondrial (MT) potential [2]: can enhance mitochondrial (MT) potential
effect on G6pc expression [3]: did not significantly inhibit G6pc expression
Tau hyperphosphorylation [4]: can inhibit Tau hyperphosphorylation in AD brains

C[Se]C[C@H]1O[C@@H](n2cnc3c(N)ncnc32)C2OC(=O)OC21 (stereo partly shown) [Compound #50, Adenosine, 5′-Se-methyl-5′-seleno-, cyclic 2′,3′-carbonate]
blood glucose level at 2 hr after glucose injection ([5]; FIG. 8A, 43 days treatment): significant decrease of glucose level
blood glucose levels at 0.25, 0.5 and 1 hr after glucose injection ([5]; FIG. 8A, 43 days treatment): no obvious decrease
effect on glucose production in HepG2 cells [1]: inhibited glucose production
effect on Glut4 mRNA levels in the liver [6]: numerically increased Glut4 mRNA levels
effect on G6pc mRNA levels in the liver [7]: slightly, but not significantly, decreased
effect on G6pc expression [3]: did not significantly inhibit G6pc expression

C[Se]C[C@H]1O[C@@H](n2cnc3c(N)ncnc32)[C@@H](O)C1O (stereo partly shown) [Compound C, 5′-Methylselenoadenosine, reference compound]
glucose tolerance (overall) ([5]; 25 μg selenium/kg ip daily 43 days from day 38, glucose 2 g/kg (FIG. 8A)): did not improve glucose tolerance
effect on glucose production in HepG2 cells [1]: inhibited glucose production
mitochondrial (MT) potential [2]: can enhance mitochondrial (MT) potential
gluconeogenesis in brain cells [8]: can enhance gluconeogenesis in brain cells
effect on G6pc expression [3]: did not significantly inhibit G6pc expression
Tau hyperphosphorylation [4]: can inhibit Tau hyperphosphorylation in AD brains
